In patent US8415469B2, “Compounds and methods for kinase modulation, and indications therefor” (Plexxikon Inc., priority 2005, dated 2013):

How the values were obtained:
Type in all cases: biochemical
B-Raf = target: T1, B-Raf (Homo sapiens, UniProt P15056); test: AlphaScreen kinase assay, B-Raf; settings: read-out: IC50, activity toward kinase B-Raf
T1 construct: purchased Upstate Biotechnology

B-Raf V600E = target: T2, B-Raf V600E (Homo sapiens, UniProt P15056, V600E); test: AlphaScreen kinase assay, B-Raf V600E; settings: read-out: IC50, activity toward kinase B-Raf V600E
T2 construct: P4254. pFastBacBD-CDC37 BRAF D437-K722-X, V600E; His6 with pFastBac HT leader (TEV site) (N); made in house; host or cells: Sf9 (baculovirus; chaperone CDC37 co-expressed)
T2 sequence (P15056 with tags, fused parts or gaps V600E): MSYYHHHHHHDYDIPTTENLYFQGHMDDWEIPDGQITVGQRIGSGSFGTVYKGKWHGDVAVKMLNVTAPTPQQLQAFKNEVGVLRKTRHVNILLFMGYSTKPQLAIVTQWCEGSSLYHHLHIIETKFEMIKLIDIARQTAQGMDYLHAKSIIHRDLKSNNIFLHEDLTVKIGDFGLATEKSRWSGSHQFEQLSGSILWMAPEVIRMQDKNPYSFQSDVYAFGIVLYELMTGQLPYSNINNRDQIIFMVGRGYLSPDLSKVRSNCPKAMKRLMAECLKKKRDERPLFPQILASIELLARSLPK

Flt1 = target: T3, Flt1 (Homo sapiens, UniProt P17948); test: AlphaScreen kinase assay, Flt1; settings: read-out: IC50, activity toward kinase Flt1
T3 construct: P1826.pETN6 BI-PTP FLT1 M799-D1165-X WT; His6 (N); made in house; host or cells: E. coli (PTP1B co-expressed)
T3 sequence (P17948 with tags, fused parts or gaps): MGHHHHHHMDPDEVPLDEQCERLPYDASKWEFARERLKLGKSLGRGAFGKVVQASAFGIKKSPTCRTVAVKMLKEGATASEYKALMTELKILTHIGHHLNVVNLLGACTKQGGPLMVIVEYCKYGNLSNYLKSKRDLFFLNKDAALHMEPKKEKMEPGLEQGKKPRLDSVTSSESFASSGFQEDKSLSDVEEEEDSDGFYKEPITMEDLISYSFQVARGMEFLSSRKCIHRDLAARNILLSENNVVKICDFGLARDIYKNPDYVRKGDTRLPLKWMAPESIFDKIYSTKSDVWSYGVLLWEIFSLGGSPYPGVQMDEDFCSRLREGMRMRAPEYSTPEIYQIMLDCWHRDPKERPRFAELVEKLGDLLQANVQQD

Fms = target: T4, Fms (Homo sapiens, UniProt P07333); test: AlphaScreen kinase assay, Fms; settings: read-out: IC50, activity toward kinase Fms
T4 construct: purchased Upstate Biotechnology
T4 sequence (P07333 20-972): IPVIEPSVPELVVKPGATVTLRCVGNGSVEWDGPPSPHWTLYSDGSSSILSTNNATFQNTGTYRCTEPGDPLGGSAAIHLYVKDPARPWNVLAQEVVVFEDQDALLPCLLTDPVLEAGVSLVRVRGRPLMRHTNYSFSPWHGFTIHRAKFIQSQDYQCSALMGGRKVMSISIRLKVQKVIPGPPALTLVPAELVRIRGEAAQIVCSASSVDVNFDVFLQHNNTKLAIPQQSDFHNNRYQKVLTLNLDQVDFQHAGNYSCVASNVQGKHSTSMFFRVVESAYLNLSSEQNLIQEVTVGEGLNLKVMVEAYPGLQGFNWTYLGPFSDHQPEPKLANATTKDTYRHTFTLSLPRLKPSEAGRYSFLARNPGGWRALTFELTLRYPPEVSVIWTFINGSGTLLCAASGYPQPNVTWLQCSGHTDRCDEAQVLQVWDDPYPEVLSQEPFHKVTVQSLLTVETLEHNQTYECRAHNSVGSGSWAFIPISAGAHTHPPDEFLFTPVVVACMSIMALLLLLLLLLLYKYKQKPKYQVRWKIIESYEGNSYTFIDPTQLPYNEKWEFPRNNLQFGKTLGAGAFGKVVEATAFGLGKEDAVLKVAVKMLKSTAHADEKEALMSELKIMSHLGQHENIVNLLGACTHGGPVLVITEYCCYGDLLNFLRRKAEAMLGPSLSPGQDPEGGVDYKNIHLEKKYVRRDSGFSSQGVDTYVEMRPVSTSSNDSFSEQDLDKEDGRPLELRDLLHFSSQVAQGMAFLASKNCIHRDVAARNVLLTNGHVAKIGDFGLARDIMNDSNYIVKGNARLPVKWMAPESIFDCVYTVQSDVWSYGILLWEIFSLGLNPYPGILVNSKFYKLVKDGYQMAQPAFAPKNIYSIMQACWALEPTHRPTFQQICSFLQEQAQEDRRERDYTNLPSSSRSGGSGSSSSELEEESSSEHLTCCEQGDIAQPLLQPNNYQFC

Jnk1 = target: T5, Jnk1 (Homo sapiens, UniProt P45983); test: AlphaScreen kinase assay, Jnk1; settings: read-out: IC50, activity toward kinase Jnk1
T5 construct: purchased Upstate Biotechnology
T5 sequence (P45983 whole entry): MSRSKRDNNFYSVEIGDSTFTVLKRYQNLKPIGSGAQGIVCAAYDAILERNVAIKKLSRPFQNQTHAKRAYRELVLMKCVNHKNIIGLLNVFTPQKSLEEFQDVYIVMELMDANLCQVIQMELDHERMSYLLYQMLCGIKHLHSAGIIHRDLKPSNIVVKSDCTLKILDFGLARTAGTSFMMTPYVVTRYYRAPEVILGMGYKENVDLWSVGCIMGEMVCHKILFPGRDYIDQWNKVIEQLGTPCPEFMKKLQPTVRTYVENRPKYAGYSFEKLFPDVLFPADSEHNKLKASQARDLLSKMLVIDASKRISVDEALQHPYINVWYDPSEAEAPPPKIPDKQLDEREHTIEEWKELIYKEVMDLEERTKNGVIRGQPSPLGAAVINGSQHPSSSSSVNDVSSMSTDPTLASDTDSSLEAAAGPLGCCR

Jnk2 = target: T6, Jnk2 (Homo sapiens, UniProt P45984); test: AlphaScreen kinase assay, Jnk2; settings: read-out: IC50, activity toward kinase Jnk2
T6 construct: purchased Roche Protein Expression Group (Indianapolis, IN)
T6 sequence (P45984 whole entry): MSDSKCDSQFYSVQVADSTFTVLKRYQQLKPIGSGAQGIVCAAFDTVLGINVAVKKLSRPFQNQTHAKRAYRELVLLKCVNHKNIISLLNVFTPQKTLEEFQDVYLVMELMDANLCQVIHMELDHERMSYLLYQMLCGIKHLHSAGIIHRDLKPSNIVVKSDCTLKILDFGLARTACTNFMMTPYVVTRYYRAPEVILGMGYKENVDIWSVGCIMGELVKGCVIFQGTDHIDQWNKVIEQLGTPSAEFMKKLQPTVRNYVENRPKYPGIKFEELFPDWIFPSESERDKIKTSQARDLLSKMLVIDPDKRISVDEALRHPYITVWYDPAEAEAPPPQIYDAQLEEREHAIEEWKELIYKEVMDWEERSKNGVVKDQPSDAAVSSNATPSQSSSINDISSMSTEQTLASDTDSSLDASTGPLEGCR
Summary of the method: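 Inhibition reads as diminished acceptor emission, since unphosphorylated peptide fails to bridge antibody acceptor beads and streptavidin donor beads. Titration: eight points, 1:3 steps, stocks at 20 mM in DMSO.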

Jnk3 = target: T7, Jnk3 (Homo sapiens, UniProt P53779); test: AlphaScreen kinase assay, Jnk3; settings: read-out: IC50, activity toward kinase Jnk3
T7 construct: purchased Upstate Biotechnology
T7 sequence (P53779 whole entry): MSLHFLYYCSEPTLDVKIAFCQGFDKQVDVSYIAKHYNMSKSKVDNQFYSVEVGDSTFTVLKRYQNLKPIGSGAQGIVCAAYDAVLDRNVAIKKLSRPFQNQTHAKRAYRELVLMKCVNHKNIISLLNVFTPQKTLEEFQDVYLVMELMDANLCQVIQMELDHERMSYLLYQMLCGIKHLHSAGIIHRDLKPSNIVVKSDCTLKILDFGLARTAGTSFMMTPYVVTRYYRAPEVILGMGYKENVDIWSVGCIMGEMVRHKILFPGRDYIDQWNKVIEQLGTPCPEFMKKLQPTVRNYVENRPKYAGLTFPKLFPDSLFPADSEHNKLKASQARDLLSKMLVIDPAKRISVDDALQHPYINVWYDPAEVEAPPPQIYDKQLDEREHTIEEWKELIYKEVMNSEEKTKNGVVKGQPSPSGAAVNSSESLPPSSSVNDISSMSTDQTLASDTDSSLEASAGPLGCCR

FGFR1 = target: T8, FGFR1 (Homo sapiens, UniProt P11362, C488A/C584S); test: AlphaScreen kinase assay, FGFR1; settings: read-out: IC50, activity toward kinase FGFR
T8 construct: P1351.pET N6 BI-PTP FGFR A458-E765-X C488A, C584S; made in house; host or cells: E. coli (PTP1B co-expressed)
T8 sequence (P11362 458-765 C488A/C584S): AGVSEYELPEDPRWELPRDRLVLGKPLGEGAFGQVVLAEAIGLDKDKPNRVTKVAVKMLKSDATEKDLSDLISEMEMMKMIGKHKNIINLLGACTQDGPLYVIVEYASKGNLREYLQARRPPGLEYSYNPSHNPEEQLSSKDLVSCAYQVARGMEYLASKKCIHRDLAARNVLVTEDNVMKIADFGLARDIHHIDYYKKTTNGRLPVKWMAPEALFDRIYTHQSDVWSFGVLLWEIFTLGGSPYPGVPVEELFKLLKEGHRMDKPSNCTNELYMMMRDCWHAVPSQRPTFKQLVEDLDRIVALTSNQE

Kit = target: T9, Kit (Homo sapiens, UniProt P10721); test: AlphaScreen kinase assay, Kit; settings: read-out: IC50, activity toward kinase Kit
T9 construct: P1332.N6 BI PTP KIT M552-K948-X COD; His6 (N); made in house; host or cells: E. coli (PTP1B co-expressed)
T9 sequence (P10721 with tags, fused parts or gaps): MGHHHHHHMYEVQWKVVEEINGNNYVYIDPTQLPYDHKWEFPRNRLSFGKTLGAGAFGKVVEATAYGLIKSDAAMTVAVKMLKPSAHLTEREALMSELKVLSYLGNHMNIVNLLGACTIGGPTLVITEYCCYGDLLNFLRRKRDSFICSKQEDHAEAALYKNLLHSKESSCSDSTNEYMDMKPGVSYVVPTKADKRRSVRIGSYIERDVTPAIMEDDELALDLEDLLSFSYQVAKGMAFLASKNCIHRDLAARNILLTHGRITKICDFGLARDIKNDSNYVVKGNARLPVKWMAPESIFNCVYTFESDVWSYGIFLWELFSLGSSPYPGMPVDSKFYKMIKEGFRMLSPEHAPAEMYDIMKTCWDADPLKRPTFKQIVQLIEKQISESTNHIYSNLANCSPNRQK

Measured: IC50

T1 sequence (P15056 whole entry): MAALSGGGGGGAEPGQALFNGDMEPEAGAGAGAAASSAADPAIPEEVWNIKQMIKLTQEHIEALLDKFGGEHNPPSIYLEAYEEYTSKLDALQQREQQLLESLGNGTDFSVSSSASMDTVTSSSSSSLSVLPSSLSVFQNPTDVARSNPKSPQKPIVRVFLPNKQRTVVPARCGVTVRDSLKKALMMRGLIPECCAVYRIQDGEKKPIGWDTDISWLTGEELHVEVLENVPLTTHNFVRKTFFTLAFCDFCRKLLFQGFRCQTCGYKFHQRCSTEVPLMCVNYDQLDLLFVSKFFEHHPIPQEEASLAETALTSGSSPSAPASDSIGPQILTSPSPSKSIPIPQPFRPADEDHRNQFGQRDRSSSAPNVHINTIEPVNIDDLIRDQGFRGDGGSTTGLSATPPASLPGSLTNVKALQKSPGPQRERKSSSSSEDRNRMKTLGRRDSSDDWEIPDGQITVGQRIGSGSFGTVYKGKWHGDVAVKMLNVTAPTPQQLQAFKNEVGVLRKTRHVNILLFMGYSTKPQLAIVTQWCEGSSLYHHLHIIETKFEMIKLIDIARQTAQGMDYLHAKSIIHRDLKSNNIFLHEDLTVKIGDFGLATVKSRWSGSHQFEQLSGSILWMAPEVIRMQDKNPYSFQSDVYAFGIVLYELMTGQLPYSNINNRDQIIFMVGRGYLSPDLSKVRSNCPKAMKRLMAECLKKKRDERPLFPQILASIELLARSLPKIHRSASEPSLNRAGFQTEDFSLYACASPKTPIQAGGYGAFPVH

NC(=O)Nc1ccc(F)c(C(=O)c2c[nH]c3ncc(Br)cc23)c1 [Compound P-1570, [3-(5-Bromo-1H-pyrrolo[2,3-b]pyridine-3-carbonyl)-4-fluoro-phenyl]-urea]
not listed: FGFR1 | Kit
≤ 10 µM: all other assays above

NC(=O)Nc1ccc(F)c(C(=O)c2c[nH]c3ncc(-c4ccccc4)cc23)c1 [Compound P-1589, [4-Fluoro-3-(5-phenyl-1H-pyrrolo[2,3-b]pyridine-3-carbonyl)-phenyl]-urea]
not listed: Kit
≤ 10 µM: all other assays above

CCCCNC(=O)Nc1ccc(F)c(C(=O)c2c[nH]c3ncc(-c4cccc(C(N)=O)c4)cc23)c1 [Compound P-1621, 3-{3-[5-(3-Butyl-ureido)-2-fluoro-benzoyl]-1H-pyrrolo[2,3-b]pyridin-5-yl}-benzamide]
not listed: Kit
≤ 10 µM: all other assays above

Cc1ccccc1NC(=O)Nc1cccc(C(=O)c2c[nH]c3ncccc23)c1 [Compound P-1720, 1-[3-(1H-Pyrrolo[2,3-b]pyridine-3-carbonyl)-phenyl]-3-o-tolyl-urea]
not listed: Flt1 | FGFR1
≤ 10 µM: all other assays above

CCCCNC(=O)Nc1cccc(C(=O)c2c[nH]c3ncc(-c4cccnc4)cc23)c1C [Compound P-1742, 1-Butyl-3-[2-methyl-3-(5-pyridin-3-yl-1H-pyrrolo[2,3-b]pyridine-3-carbonyl)-phenyl]-urea]
not listed: Flt1 | FGFR1 | Kit
≤ 10 µM: all other assays above

O=C(Nc1ccc(F)cc1)Nc1cccc(C(=O)c2c[nH]c3ncc(-c4cccnc4)cc23)c1 [Compound P-1748, 1-(4-Fluoro-phenyl)-3-[3-(5-pyridin-3-yl-1H-pyrrolo[2,3-b]pyridine-3-carbonyl)-phenyl]-urea]
not listed: Flt1 | FGFR1 | Kit
≤ 10 µM: all other assays above

COc1cccc(NC(=O)Nc2cccc(C(=O)c3c[nH]c4ncc(-c5cccnc5)cc34)c2)c1 [Compound P-1749, 1-(3-Methoxy-phenyl)-3-[3-(5-pyridin-3-yl-1H-pyrrolo[2,3-b]pyridine-3-carbonyl)-phenyl]-urea]
not listed: Flt1 | FGFR1 | Kit
≤ 10 µM: all other assays above

O=C(Nc1ccc(Cl)cc1)Nc1cccc(C(=O)c2c[nH]c3ncc(-c4cccnc4)cc23)c1 [Compound P-1750, 1-(4-Chloro-phenyl)-3-[3-(5-pyridin-3-yl-1H-pyrrolo[2,3-b]pyridine-3-carbonyl)-phenyl]-urea]
not listed: Flt1 | FGFR1 | Kit
≤ 10 µM: all other assays above

Cc1ccc(NC(=O)Nc2cccc(C(=O)c3c[nH]c4ncc(-c5cccnc5)cc34)c2)cc1 [Compound P-1756, 1-[3-(5-Pyridin-3-yl-1H-pyrrolo[2,3-b]pyridine-3-carbonyl)-phenyl]-3-p-tolyl-urea]
not listed: Flt1 | FGFR1 | Kit
≤ 10 µM: all other assays above

Cc1cccc(NC(=O)Nc2cccc(C(=O)c3c[nH]c4ncc(-c5cccnc5)cc34)c2)c1 [Compound P-1757, 1-[3-(5-Pyridin-3-yl-1H-pyrrolo[2,3-b]pyridine-3-carbonyl)-phenyl]-3-m-tolyl-urea]
not listed: Flt1 | FGFR1 | Kit
≤ 10 µM: all other assays above

Cc1ccccc1NC(=O)Nc1cccc(C(=O)c2c[nH]c3ncc(-c4cccnc4)cc23)c1 [Compound P-1759, 1-[3-(5-Pyridin-3-yl-1H-pyrrolo[2,3-b]pyridine-3-carbonyl)-phenyl]-3-o-tolyl-urea]
not listed: Flt1 | FGFR1 | Kit
≤ 10 µM: all other assays above

O=C(Nc1cccc(C(=O)c2c[nH]c3ncccc23)c1)Nc1ccon1 [Compound P-1764, 1-Isoxazol-3-yl-3-[3-(1H-pyrrolo[2,3-b]pyridine-3-carbonyl)-phenyl]-urea]
not listed: Flt1 | FGFR1 | Kit
≤ 10 µM: all other assays above

Cc1cc(NC(=O)Nc2cccc(C(=O)c3c[nH]c4ncccc34)c2)on1 [Compound P-1765, 1-(3-Methyl-isoxazol-5-yl)-3-[3-(1H-pyrrolo[2,3-b]pyridine-3-carbonyl)-phenyl]-urea]
not listed: Flt1 | FGFR1 | Kit
≤ 10 µM: all other assays above

Cc1noc(NC(=O)Nc2cccc(C(=O)c3c[nH]c4ncccc34)c2)c1C [Compound P-1767]
not listed: Flt1 | FGFR1
≤ 10 µM: all other assays above

Cc1noc(NC(=O)Nc2cccc(C(=O)c3c[nH]c4ncc(Cl)cc34)c2)c1C [Compound P-1776, 1-[3-(5-Chloro-1H-pyrrolo[2,3-b]pyridine-3-carbonyl)-phenyl]-3-(3,4-dimethyl-isoxazol-5-yl)-urea]
not listed: Flt1 | FGFR1
≤ 10 µM: all other assays above

CCCCNC(=O)Nc1cccc(C(=O)c2c[nH]c3ncc(-c4cccnc4)cc23)c1Cl [Compound P-1828, 1-Butyl-3-[2-chloro-3-(5-pyridin-3-yl-1H-pyrrolo[2,3-b]pyridine-3-carbonyl)-phenyl]-urea]
not listed: Flt1 | FGFR1 | Kit
≤ 10 µM: all other assays above

CCCS(=O)(=O)Nc1ccc(F)c(C(=O)c2c[nH]c3ncc(-c4ccc(C(=O)N(C)C)c(C)c4)cc23)c1F [Compound P-2007]
not listed: Flt1 | FGFR1 | Kit
≤ 10 µM: all other assays above
